Experimental data published in publication PMC5877539, “Biochemical and MALDI-TOF Mass Spectrometric Characterization of a Novel Native and Recombinant Cystine Knot Miniprotein from Solanum tuberosum subsp. andigenum cv. Churqueña” (International Journal of Molecular Sciences, 2018).
Non-standard residues stand in square brackets, D forms with d. No end group written: not given here. pGlu = O=C1CC[C@@H](C(=O)O)N1

Tests used:
[1] = cited from earlier work
Description: To date, a large number of CKMPs have been identified and isolated from natural sources (i.e., from arthropods, vertebrates, mollusks, fungi, plants, and so on). These molecules belong to more than 34 protein families and are involved in diverse biological functions. In animals, CKMPs are secreted peptides that function as extracellular signaling molecules involved in the regulation of important cellular functions such as cell growth or cell development. In plants, CKMPs are often involved in defense against external pathogens. Typically, the latter group functions as prote ...

[2] = target: bovine carboxypeptidases A (bCPA); assay: Inhibition kinetic constant (Ki), bCPA, pre-steady-state tight-binding (Morrison) assay; type: biochemical; conditions: against bCPA
Description: (§1) The inhibitory properties of the purified rchuPCI against bCPA and pCPB were determined and compared with a recombinant version of the canonical PCI. The Ki values were evaluated following a pre-steady-state based protocol, according to the Morrison model for tight-binding inhibitors. […] When compared to the canonical PCI, the Ki values obtained for rchuPCI against bCPA and pCPB were about 2-fold higher than the Ki values obtained for recombinant PCI (rPCI).
(§2) The method for tight binding inhibitors was used for the Ki determination. Inhibitory assays were performed at 25 °C under equilibrium conditions ([E0]/Ki ≤ 10) with a fixed concentration of bCPA or pCPB and substrate (0.1 mM N-(4-methoxyphenylazoformyl)-Phe-OH or 0.1 mM N-(4-methoxyphenylazoformyl)-Arg-OH, respectively) in Tris-HCl buffer (pH 7.5) containing 0.2 M NaCl. Samples were pre-incubated for 15 min at RT before the addition of substrate. Then, the decrease in absorbance was measured at 340 nm in a Victor3 (Perkin Elmer, Boston, MA, USA) plate reader. Ki values were calculated by direct fitting of the fractional activities (vi/v0) to the Morrison equation and assuming a competitive inhibition modality (Equations (3) and (4)). (3) vi/v0=1−([E]T+[I]T+Kiapp)−([E]T+[I]T+Kiapp)^2−4[E]T[I]T/2[E]T (4) Ki=Kiapp/([S0/KM])+1 […]

[3] = target: porcine carboxypeptidases B (pCPB); assay: Inhibition kinetic constant (Ki), pCPB, pre-steady-state tight-binding (Morrison) assay; type: biochemical; conditions: against pCPB
Description: as §1, §2

[4] = system: bovine CPA; assay: Affinity chromatography on CPA-glyoxyl-agarose (binding to immobilized CPA), MALDI-TOF read-out; conditions: heat-treated extract (100 °C, 60 min); 0.1 M Tris-HCl pH 7.2, 0.2 M NaCl
Description: (§3) A 50 mL aliquot of the clarified crude extract (with a protein concentration of (200 μg·mL^−1) was loaded onto a 2.0 mL bovine CPA-glyoxyl-agarose column prepared in house. The affinity resin was prepared in house as described. Before the addition of the crude extract, the affinity resin was previously equilibrated with 10 column volumes (cv) 0.1 M Tris-HCl buffer (pH 7.2) containing 0.2 M NaCl. Then, the column was washed with 5 cv of equilibration buffer. The retained proteins were eluted with two different buffers: (1) HCl solution with pH = 5.0 (2 cv) and (2) […] solution with pH = 3.0 (2 cv). The eluted fractions were adjusted immediately to pH 7.0 by adding NaOH. All the fractions that presented CPA inhibitory activity were pooled and stored at −80 °C until analysis.
(§4) For MALDI-TOF mass spectrometric analysis, samples from the different purification steps, as well as from the clarified crude extract were mixed with an equal volume of α-cyano-4-hydroxycinnamic acid (hcca) matrix solution. Previously, the samples were desalted by dialysis in 0.022 μm filters. The matrix-sample mixture was spotted onto MT 384 target plate polished steel T F from Bruker Daltonics, and the spots were evaporated to dryness at room temperature. […] The resultant tryptic peptides were dissolved in 10 μL of 0.1% CF3CO2H (v/v) an analyzed by MALDI-TOF in the presence of hcca matrix. […]

[5] = system: immobilized CPA; assay: C-terminal cleavage by immobilized CPA; set-up: species or system bovine; conditions: affinity chromatography eluate, MALDI-TOF
Description: as §3, §4

[6] = system: bovine CPA; assay: CPA inhibitory activity after heat treatment (thermal stability); type: physicochemical; conditions: crude extract, 100 °C for 60 min; Bradford and CPA inhibition
Description: The bCPA inhibitory activity of the crude extract and the heat-treated samples was determined similarly as described above for the determination of the IC50 values. However, in this case a unique concentration of the sample was tested. bCPA inhibitory activity (%) was calculated by using the following equation:(2) Y=(ΔAbs340nm/Δt(min))potato extract/(ΔAbs340nm/Δt(min))control×100
(§5) Aliquots with 1.0 mL of the clarified crude extract (see Section 3.2) where incubated at 60, 70, 85 or 100 °C for 60 min. After incubation the samples were centrifuged at 14,500× g for 90 min at 4 °C to eliminate all thermally denatured proteins. Afterwards, the total protein content and the inhibitory activity of the non-treated crude extract and heat-treated samples were determined.

[7] = MALDI-TOF MS of heat-treated samples (thermal stability); type: physicochemical; conditions: crude extract heat-treated 60 min; MALDI-TOF linear positive mode
Description: as §5
For MALDI-TOF mass spectrometric analysis, samples from the different purification steps, as well as from the clarified crude extract were mixed with an equal volume of α-cyano-4-hydroxycinnamic acid (hcca) matrix solution. Previously, the samples were desalted by dialysis in 0.022 μm filters. The matrix-sample mixture was spotted onto MT 384 target plate polished steel T F from Bruker Daltonics, and the spots were evaporated to dryness at room temperature. Mass spectra were acquired on a Bruker Daltonics Ultraflextreme MALDI-TOF mass spectrometer (Bruker Daltonics, Billerica, MA, USA) operating in a linear positive mode. PMF analysis was performed for the identification of nchuPCI. In brief, an in situ tryptic digestion of the tris-tricine-SDS-PAGE electrophoresis bands as performed by following a well described protocol. The resultant tryptic peptides were dissolved in 10 μL of 0.1% CF3CO2H (v/v) an analyzed by MALDI-TOF in the presence of hcca matrix. […]

[8] = system: calcium channel; conditions: cited from earlier work
[9] = system: immobilized CPA; conditions: after binding of the inhibitor to immobilized CPA; cited from earlier work
Description: For further characterization, the initial heat-treated crude extract, the flow-through (fraction containing the non-retained peptides and proteins), and the elution from the affinity chromatography containing the final purified protein were subjected to MALDI-TOF mass spectrometry. A detailed analysis of the peaks present in the mass spectra for the initial heat-treat ...

[10] = ref 34 (Wang and co-workers, 2006); cited from earlier work
Description: (§6) A number of CKMPs function as potent protease peptide inhibitors (PPIs). Among them, the potato carboxypeptidase inhibitor (PCI) was the first CKMPs to be discovered. […] The first crystal structure of this 39 amino acid plant protease inhibitor was reported in 1980 by Rees and Liscomb. After almost 40 years of intense research in the field of proteases, only a small number of metallocarboxypept ...

[11] = system: adenocarcinoma cell; conditions: in vitro, acting as epidermal growth factor (EGF) antagonist; cited from earlier work
Description: as §6

[12] = system: metallocarboxypeptidases (MCPs); conditions: cited from earlier work
Description: as §6

[13] = system: pancreatic carboxypeptidases A and B (CPA and CPB, respectively); conditions: in vitro, by pancreatic carboxypeptidases A and B; cited from earlier work
Description: as §6

[14] = target: T1, Carboxypeptidase A from bovine pancreas (bovine, UniProt P00730 111-419); assay: enzyme inhibition kinetics (Morrison equation for tight-binding inhibitors); 25 °C, equilibrium conditions ([E0]/Ki <= 10), fixed bCPA or pCPB, 0.1 mM N-(4-methoxyphenylazoformyl)-Phe-OH (bCPA) or -Arg-OH (pCPB), Tris-HCl pH 7.5, 0.2 M NaCl; pre-incubated 15 min at RT; absorbance at 340 nm; competitive inhibition assumed; conditions: both partners purified
T1 construct: carboxypeptidase A from bovine pancreas; Free in solution for the Ki determinations; also called bCPA; bovine CPA; source: bought: Sigma-Aldrich (from bovine pancreas)
T1 sequence (looked up): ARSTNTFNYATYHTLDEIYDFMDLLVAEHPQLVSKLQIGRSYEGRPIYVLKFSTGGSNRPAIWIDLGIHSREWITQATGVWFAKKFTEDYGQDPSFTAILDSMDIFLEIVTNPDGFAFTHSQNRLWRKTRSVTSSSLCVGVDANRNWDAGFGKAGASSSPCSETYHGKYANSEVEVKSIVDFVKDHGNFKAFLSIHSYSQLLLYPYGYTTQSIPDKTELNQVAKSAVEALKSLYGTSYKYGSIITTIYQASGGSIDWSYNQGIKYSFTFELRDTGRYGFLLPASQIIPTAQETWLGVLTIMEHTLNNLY

[15] = target: T2, Carboxypeptidase B from porcine pancreas (porcine, UniProt P09955 111-416); assay: as above; conditions: both partners purified
T2 construct: carboxypeptidase B from porcine pancreas; also called pCPB; porcine CPB; source: bought: Sigma-Aldrich (from porcine pancreas)
T2 sequence (looked up): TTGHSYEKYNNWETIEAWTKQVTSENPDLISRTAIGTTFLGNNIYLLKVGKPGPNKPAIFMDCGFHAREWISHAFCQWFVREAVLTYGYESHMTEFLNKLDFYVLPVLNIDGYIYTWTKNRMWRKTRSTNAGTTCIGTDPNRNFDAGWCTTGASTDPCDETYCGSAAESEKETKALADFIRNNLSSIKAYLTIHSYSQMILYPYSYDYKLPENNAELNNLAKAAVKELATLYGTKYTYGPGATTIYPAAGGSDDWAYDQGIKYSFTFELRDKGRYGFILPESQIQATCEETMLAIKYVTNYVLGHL

[16] = compared to recombinant PCI (rPCI)

For “kalata B1: CKMP isolated from plants (GLPVCGETCVGGTCNTPGCTCSWPVCTRN; ends and bridges not checked; also: cystine-knot disulfides, pairing not given here; UniProt P56254 89-117, looked up)”, the “Antibacterial and/or antifungal activities” value [1] is given as “antibacterial and/or antifungal activities”.

With “QRDPDPICNKPCKTHDDCSGAWFCQACWNSARTCGPYVG (disulfide (positions not given here)) [rchuPCI, recombinant product of mature chuPCI (39 amino acids) expressed in E. coli BL21 (DE3)]” the “All Ki values determined (range in words)” value [2] was “nanomolar range”, the “Ki values obtained for rchuPCI compared with rPCI (fold higher)” value [2, 16] was “about 2 fold” and the “All Ki values determined (range in words)” value [3] was “nanomolar range”. The “Ki values obtained for rchuPCI compared with rPCI (fold higher)” value [3, 16] was “about 2 fold”.

With “-RDPDPICNKPCKTHDDCSGAWFCQACWNSARTCGPYVG (disulfide) [IIa, chuPCI lacking the N-terminal amino acid]” the “Retention by immobilized CPA (MALDI-TOF of flow-through vs initial extract)” value [4] was “clear fading of the molecular ion intensities” and the “C-terminal cleavage by immobilized CPA (mass shift)” value [5] was “loss of 57 Da”.

With “[pGlu]RDPDPICNKPCKTHDDCSGAWFCQACWNSARTCGPYVG (disulfide (positions not given here)) [native chuPCI, Churqueña]” the “Temperature stability of CPA inhibitory activity” value [6] was “high temperature stability, even after thermal treatment at 100 °C for 60 min” and the “Heat resistance of the 4309 Da peak/miniprotein” value [7] was “heat-resistant molecule”.

In the case of “[pGlu]RDPDPICNKPCKTHDDCSGAWFCQACWNSARTCGPYVG (disulfide (positions not given here)) [IIIa, full-length chuPCI post-translationally modified with an N-terminal pyroglutamic acid]”, the “Retention by immobilized CPA (MALDI-TOF of flow-through vs initial extract)” value [4] is reported as “clear fading of the molecular ion intensities” and the “C-terminal cleavage by immobilized CPA (mass shift)” value [5] is reported as “loss of 57 Da”.

For ω-conotoxin MVIIa, the Calcium channel block [8] is given as “calcium channel blocker”.

In the case of “PCI: potato carboxypeptidase inhibitor, 39 amino acid plant protease inhibitor from Solanum tuberosum (QQHADPICNKPCKTHDDCSGAWFCQACWNSARTCGPYVG)”, the “C-terminal cleavage by immobilized CPA” value [9] is listed as “a C-terminal glycine residue is usually cleaved by the immobilized CPA”, the Antithrombotic action [10] is listed as “can act as an antithrombotic drug” and the “Inhibition of adenocarcinoma cell growth” value [11] is listed as “inhibit in vitro adenocarcinoma cell growth”. The Inhibition of metallocarboxypeptidases [12] was “inhibits different enzymes within the family of metallocarboxypeptidases” and the “Blocking of C-terminal cleavage (and consequent inactivation) of human EGF” value [13] was “blocks the C-terminal cleavage”.

Molecule QQHADPICNKPCKTHDDCSGAWFCQACWNSARTCGPYVG (natural protein, Solanum tuberosum subsp. tuberosum, UniProt P01075 1-39, looked up, also called canonical PCI) [recombinant canonical potato carboxypeptidase inhibitor (PCI)] has a Ki [14] of 4.3 ± 0.46 nM and a Ki [15] of 10.7 ± 1.17 nM.

B1: recombinant chuPCI (cystine-knot metallocarboxypeptidase inhibitor from Solanum tuberosum subsp. andigenum cv. Churqueña) (natural protein)
chain: QRDPDPICNKPCKTHDDCSGAWFCQACWNSARTCGPYVG
modifications: also: N-terminal Gln partly cyclised to pyroglutamate
notes: mature chuPCI (39 amino acids) of the chuPCI precursor, S. tuberosum subsp. andigenum cv; Churqueña; Cloned in pIN-III-OmpA3 with the OmpA3 signal peptide at the N-terminus for secretion; The mass of the purified protein (4326.3 Da) fits the 39 residues without the signal peptide; Three disulfide bonds (Cys8-Cys24, Cys12-Cys27, Cys18-Cys34); also called rchuPCI; recombinant churqueña PCI; source: …
With B1 the Ki [14] was 10.8 ± 1.55 nM and the Ki [15] was 19.8 ± 1.82 nM.
